Assay results as given in patent publication US8252973B2, “Metabolic engineering of lipid metabolism by improving fatty acid binding and transport” (The Salk Institute for Biological Studies, priority 2006, dated 2012).

Key:
Type in all cases: binding
At279 (At3g63170) [1] = target: T1, At279 (At3g63170) (Arabidopsis thaliana, UniProt Q9M1X2); test: LC-MS analysis of fatty acids bound to purified At279 protein; settings: protein over-expressed in and purified from E. coli, ethanol extract, negative-ion ESI
T1 construct: At279 and At287 proteins were purified to homogeneity as described above; His tag (pHIS8 vector) (N, cleaved yes); made in house; host or cells: E. coli BL21 (DE3)
T1 sequence (Q9M1X2 1-279): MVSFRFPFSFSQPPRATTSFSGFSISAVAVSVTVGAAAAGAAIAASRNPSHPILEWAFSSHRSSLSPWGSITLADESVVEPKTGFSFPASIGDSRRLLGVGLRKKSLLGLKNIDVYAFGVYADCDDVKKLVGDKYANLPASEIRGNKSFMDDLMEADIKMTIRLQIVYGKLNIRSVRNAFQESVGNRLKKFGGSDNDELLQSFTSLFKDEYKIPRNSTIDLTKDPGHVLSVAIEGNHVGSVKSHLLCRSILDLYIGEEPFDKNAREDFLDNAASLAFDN
Protocol: (§1) Cloning, expression and purification of At3g63170 (At279) and At1g53520 (At287): Arabidopsis thaliana At3g63170 (At279) and At1g53520 (At287) genes were subcloned into the pHIS8 Escherichia coli expression vector derived from pET28a (+). For crystallization purpose, constructs of At279 and At287 lacking the transit peptide sequence found at the N-terminal region of the protein (˜50 amino acids) were also created. Transformed E. coli. BL21 (DE3) cells were incubated with shaking at 37° C. in Terrific broth containing 50 μg/ml kanamycin until A([…])=1.0. Protein expression was induced with 0.5 mM isopropyl 1-thio-β-galactopyranoside, and the cultures were incubated with shaking at 22° C. for an additional 6 h. Cells were harvested by centrifugation at 9,000×g and cell pellets re-suspended in lysis buffer (500 mM NaCl, 50 mM Tris-HCl (pH 8.0), 20 mM imidazole, 10% (v/v) glycerol 1% (v/v) Tween 20, 10 mM […]) supplemented with 1 mg/ml lysozyme. Following sonication and centrifugation of the lysed cell debris at 100,000×g, the supernatant was passed over a Ni2+-NTA column (Qiagen, Valencia, Calif.) equilibrated in lysis buffer, washed with 10 bed volumes of wash buffer (500 mM NaCl, 50 mM Tris-HCl (pH 8.0), 20 mM imidazole, 10 mM β-mercaptoethanol), and the His-tagged protein eluted with 10 bed volumes of elution buffer (500 mM NaCl, 50 mM Tris-HCl (pH 8.0), 250 mM imidazole, 10 mM β-mercaptoethanol). The N-terminal His tag was cleaved by thrombin digestion during a 24-h dialysis against digestion buffer (500 mM NaCl, 50 mM Tris (pH 8.0), 10 mM β-mercaptoethanol) at 4° C. Cleaved protein was isolated by running the dialyzed sample over another Ni2+-NTA column equilibrated in digestion buffer to remove the His tag and uncleaved protein, followed by a benzamidine-Sepharose column to remove thrombin. A Superdex S75 gel filtration column (Amersham Biosciences) equilibrated in gel filtration buffer (500 mM NaCl, 25 mM HEPES (pH 7.5), 2 mM dithiothreitol (DTT) was utilized to isolate homogeneous At279 and A287. Peak fractions were collected and dialyzed against crystallization storage buffer (100 mM NaCl, 25 mM HEPES (pH 7.5), 2 mM DTT). The resulting samples were subjected to SDS-PAGE and judged to be >95% pure based upon Coomassie staining. At279 and At287 were subsequently concentrated to 10-15 mg/ml and stored at −80° C.
(§2) At279 and At287 proteins were purified to homogeneity as described above. Ice-cold HPLC grade ethanol (600 μl) was added to the proteins (150 μl protein sample at 10 mg/ml previously dialyzed against 20 mM ammonium bicarbonate). The samples were vortexed and incubated at −20° C. for 3 days. For LC-MS analysis, the samples were centrifuged, and the supernatant containing the FAs was removed and placed in a new glass vial. The solvent was evaporated at 25° C., and the remaining residue resuspended in 200 μl propanol. The extracts were analyzed by liquid chromatography (LC) using an Agilent 1100 HPLC employing a Gemini reversed-phase C18 column (4.6×150 mm, 5 μ) running at a flow rate of 1 ml/min, and coupled to an electrospray ionization (ESI) XCT ion trap mass spectrometer (Agilent) operated in the negative-ion mode employing a continual introduction of a 20 mM ammonium acetate solution flowing at 100 μl/min. A linear gradient of acetonitrile (30-100% v/v) in 25 mM ammonium bicarbonate, pH 8, was used. The negative ion-ESI mass spectra of FA standards were as follows: Laurie acid (C12:0) (m/z)=198.7 ([M-H]-), Myristic acid (C14:0) (m/z)=226.9 ([M-H]-), Palmitic acid (C16:0)/m/z)=254.9 ([M-H]-) and Stearic acid (C18:0) (m/z)=282.9 ([M-H]-).

At287 (At1g53520) = target: T2, At287 (At1g53520) (Arabidopsis thaliana, UniProt Q9C8L2); test: LC-MS analysis of fatty acids bound to purified At287 protein; settings: protein over-expressed in and purified from E. coli, ethanol extract, negative-ion ESI
T2 construct: At279 and At287 proteins were purified to homogeneity as described above; His tag (pHIS8 vector) (N, cleaved yes); made in house; host or cells: E. coli BL21 (DE3)
T2 sequence (Q9C8L2 73-287): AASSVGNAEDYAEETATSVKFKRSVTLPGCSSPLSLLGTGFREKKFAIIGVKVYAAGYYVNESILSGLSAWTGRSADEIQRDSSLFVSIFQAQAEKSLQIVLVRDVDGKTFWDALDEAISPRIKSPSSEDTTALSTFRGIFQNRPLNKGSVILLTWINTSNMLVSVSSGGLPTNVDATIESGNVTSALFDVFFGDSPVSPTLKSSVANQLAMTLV
Protocol: as §1, §2

At279 (At3g63170) [2] = target: T3, At279 (At3g63170) (Arabidopsis thaliana, UniProt Q9M1X2); test: X-ray crystal structure of At279 with bound small molecule; settings: ligand likely derived from E. coli, carboxylic acid sequestered by Arg 103 and Tyr 116
T3 construct: Crystals of the heterologously expressed At279 C-terminal construct (residues 77 to 279) were obtained by vapor diffusion; His tag (pHIS8 vector) (N, cleaved yes); made in house; host or cells: E. coli BL21 (DE3)
T3 sequence (Q9M1X2 77-279): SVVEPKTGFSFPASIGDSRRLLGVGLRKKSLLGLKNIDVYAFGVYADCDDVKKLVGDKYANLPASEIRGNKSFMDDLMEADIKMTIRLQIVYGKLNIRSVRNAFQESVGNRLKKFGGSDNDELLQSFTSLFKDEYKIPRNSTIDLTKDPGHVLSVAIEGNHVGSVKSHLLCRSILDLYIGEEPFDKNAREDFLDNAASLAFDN
Protocol: Crystals of the heterologously expressed At279 C-terminal construct (residues 77 to 279) were obtained by vapor diffusion in 2 μl hanging drops incubated at 4° C. and consisting of a 1:1 mixture of protein and crystallization buffer. The crystallization buffer contained 19% (w/v) PEG 3350, 0.3 M KCl, 2 mM DTT and 100 mM TAPS buffer at pH 8.5. Prior to freezing in liquid nitrogen, native crystals were passed through a cryogenic buffer identical to the crystallization buffer except for the use of 21% (w/v) PEG 3350 and the inclusion of 20% (v/v) ethylene glycol. For heavy atom derivatization, native At279 crystals were soaked overnight in crystallization buffer differing from the crystallization solution due to an increased PEG 3350 concentration (21% (w/v)) and the inclusion of 1 mM K2PtCl4 prior to cryogenic freezing as before. A multi-wavelength anomalous dispersion (MAD) data set was collected at the Pt edge on a K2PtCl4 derivative crystal at the Stanford Synchrotron Radiation Laboratory (SSRL) on beam line BL1-5. Data were processed with HKL2000 and reduced to a unique set of indexed intensities to a resolution of 2.6 Å. A single-wavelength native data set was collected at SSRL and processed with HXL2000 to a resolution of 1.9 Å. At279 crystals belong to the P2(1)2(1)2(1) space group, with average unit cell dimensions of a=56.44 Å, b=56.96 Å, c=140.37 Å, α=β=γ=90°. […]

| fatty acid bound to purified At279 (presence in protein extract by LC-MS) (At279 (At3g63170) [1]) | fatty acid bound to purified At279 (presence in protein extract by LC-MS) (At279 (At3g63170) [1]; listed as C18:0) | fatty acid bound to purified At287 (presence in protein extract by LC-MS) (At287 (At1g53520)) | fatty acid bound to purified At287 (presence in protein extract by LC-MS) (At287 (At1g53520); listed as C18:0) | fatty acid bound to purified At279 (presence in protein extract by LC-MS) (At279 (At3g63170) [1]; listed as C16:0) | fatty acid bound to purified At287 (presence in protein extract by LC-MS) (At287 (At1g53520); listed as C16:0) | fatty acid bound to purified At279 (presence in protein extract by LC-MS) (At279 (At3g63170) [1]; listed as C14:0) | fatty acid bound to purified At287 (presence in protein extract by LC-MS) (At287 (At1g53520); listed as C14:0) | fatty acid bound to purified At279 (presence in protein extract by LC-MS) (At279 (At3g63170) [1]; listed as C12:0) | fatty acid bound to purified At287 (presence in protein extract by LC-MS) (At287 (At1g53520); listed as C12:0) | SMILES | small molecule bound in At279 crystal structure (At279 (At3g63170) [2]) | small molecule bound in At279 crystal structure (At279 (At3g63170) [2]; listed as lauric acid) |
| --- | --- | --- | --- | --- | --- | --- | --- | --- | --- | --- | --- | --- |
| bind | clearly showed the presence | bind | clearly showed the presence | – | – | – | – | – | – | CCCCCCCCCCCCCCCCCC(=O)O [Stearic acid] | – | – |
| bind | – | bind | – | clearly showed the presence | clearly showed the presence | – | – | – | – | CCCCCCCCCCCCCCCC(=O)O [Palmitic acid] | – | – |
| bind | – | bind | – | – | – | clearly showed the presence | clearly showed the presence | – | – | CCCCCCCCCCCCCC(=O)O [Myristic acid] | – | – |
| bind | – | bind | – | – | – | – | – | clearly showed the presence | clearly showed the presence | CCCCCCCCCCCC(=O)O [Laurie acid, lauric acid] | sequestered in a well-organized binding pocket | bound in a cavity partially overlapping with the originally identified CHI active site |
